A short description of this experiment: HCV replicon assay (luciferase) in ET (Huh-lucubineo-ET) cell line. It counts as cell-based. The settings on record: Hepatitis C virus, inhibition of replication relative to no compound control, ET replicon cells, luciferase 48-72 hours; for inhibition at 10 µM: tested at 10 μM, read-out: % inhition at 10 μM.

Molecules are shown by their SMILES.

Consider `Fc1ccccc1-c1nc2cnn(Cc3cc(-c4ccc(Br)cc4)no3)cc-2n1` [Compound 285, 5-[3-(4-Bromo-phenyl)-isoxazol-5-ylmethyl]-2-(2-fluoro-phenyl)-5H-imidazo[4,5-d]pyridazine], for which the inhibition at 10 µM is 90.1%. Same read-out and setting: for `COc1ccc(-c2noc(Cn3cc4nc(-c5cccc(F)c5F)nc-4cn3)n2)cc1` [Compound 228, 2-(2,3-Difluoro-phenyl)-5-[3-(4-methoxy-phenyl)-[1,2,4]oxadiazol-5-ylmethyl]-5H-imidazo[4,5-d]pyridazine] the value was 40.8%.

For `COc1ccc(-c2cc(Cn3cc4nc(-c5cccc(F)c5F)nc-4cn3)on2)c(OC(F)(F)F)c1` [Compound 298, 2-(2,3-Difluoro-phenyl)-5-[3-(4-methoxy-2-trifluoromethoxy-phenyl)-isoxazol-5-ylmethyl]-5H-imidazo[4,5-d]pyridazine], the inhibition at 10 µM is 99.9%. As for `Fc1cccc(-c2nc3cnn(Cc4cc(-c5ccc(C#CC6CCCC6)cc5)no4)cc-3n2)c1F` [Compound 335, 5-[3-(4-Cyclopentylethynyl-phenyl)-isoxazol-5-ylmethyl]-2-(2,3-difluoro-phenyl)-5H-imidazo[4,5-d]pyridazine], the inhibition at 10 µM is 96.7%.

Consider `Fc1cccc(-c2nc3cnn(Cc4cc(-c5ccc(OC(F)(F)F)cc5)on4)cc-3n2)c1F` [Compound 242, 2-(2,3-Difluoro-phenyl)-5-[5-(4-trifluoromethoxy-phenyl)-isoxazol-3-ylmethyl]-5H-imidazo[4,5-d]pyridazine], for which the inhibition at 10 µM turned out to be 97%. For the compound `CCCCc1ccc(-c2cc(Cn3cc4nc(-c5cccc(F)c5F)nc-4cn3)on2)c(C(F)(F)F)c1` [Compound 186, 5-[3-(4-Butyl-2-trifluoromethyl-phenyl)-isoxazol-5-ylmethyl]-2-(2,3-difluoro-phenyl)-5H-imidazo[4,5-d]pyridazine], the inhibition at 10 µM stood at 100%. On the same count and under the same terms, for `FC(F)(F)c1ccc(-c2cc(Cn3cc4nc(-c5cccs5)nc-4cn3)on2)c(C(F)(F)F)c1` [Compound 143, 5-[3-(2,4-Bis-trifluoromethyl-phenyl)-isoxazol-5-ylmethyl]-2-thiophen-2-yl-5H-imidazo[4,5-d]pyridazine] the value was 96.1%. On the same count and under the same terms, for `CCCOc1ccc(-c2cc(Cn3cc4nc(-c5cccc(F)c5F)nc-4cn3)on2)c(F)c1` [Compound 296, 2-(2,3-Difluoro-phenyl)-5-[3-(2-fluoro-4-propoxy-phenyl)-isoxazol-5-ylmethyl]-5H-imidazo[4,5-d]pyridazine] the value was 99.5%; for `Fc1cccc(-c2nc3cnn(Cc4cc(-c5ccc(OC(F)F)cc5)no4)cc-3n2)c1F` [Compound 176, 5-[3-(4-Difluoromethoxy-phenyl)-isoxazol-5-ylmethyl]-2-(2,3-difluoro-phenyl)-5H-imidazo[4,5-d]pyridazine], 99.8%. Same read-out and setting: then `Fc1cccc(-c2nc3cnn(Cc4cc(-c5ccccc5)no4)cc-3n2)c1F` [Compound 337, 2-(2,3-Difluoro-phenyl)-5-(3-phenyl-isoxazol-5-ylmethyl)-5H-imidazo[4,5-d]pyridazine], with 68.5%; and `CN1CCN(c2ccc(-c3cc(Cn4cc5nc(-c6cccc(F)c6F)nc-5cn4)on3)cc2)CC1` [Compound 194, 2-(2,3-Difluoro-phenyl)-5-{3-[4-(4-methyl-piperazin-1-yl)-phenyl]-isoxazol-5-ylmethyl}-5H-imidazo[4,5-d]pyridazine], with 57.5%. `CC(C)(C)C#Cc1ccc(-c2cc(Cn3cc4nc(-c5cccc(F)c5F)nc-4cn3)on2)cc1` [Compound 333, 2-(2,3-Difluoro-phenyl)-5-{3-[4-(3,3-dimethyl-but-1-ynyl)-phenyl]-isoxazol-5-ylmethyl}-5H-imidazo[4,5-d]pyridazine]: the inhibition at 10 µM was 86.4%. Still for that read-out and setting: for `Cc1nc(-c2cc(Cn3cc4nc(-c5cccc(F)c5F)nc-4cn3)on2)c(C)o1` [Compound 185, 2-(2,3-Difluoro-phenyl)-5-[3-(2,5-dimethyl-oxazol-4-yl)-isoxazol-5-ylmethyl]-5H-imidazo[4,5-d]pyridazine] the value was 47.8%; for `COc1ccc(-c2cc(Cn3cc4nc(-c5cccc(F)c5F)nc-4cn3)on2)c(C(=O)O)c1` [Compound 266, 2-{5-[2-(2,3-Difluoro-phenyl)-imidazo[4,5-d]pyridazin-5-ylmethyl]-isoxazol-3-yl}-5-methoxy-benzoic Acid], 10%. The same measure, in the same setting: then `Fc1cccc(-c2nc3cnn(Cc4cc(-c5ccc(I)cc5)no4)cc-3n2)c1F` [Compound 306, 2-(2,3-Difluoro-phenyl)-5-[3-(4-iodo-phenyl)-isoxazol-5-ylmethyl]-5H-imidazo[4,5-d]pyridazine], with 99.9%. `Fc1cccc(-c2nc3cnn(Cc4cc(-c5ccc(OCc6ccncc6)cc5)no4)cc-3n2)c1F` [Compound 148, 2-(2,3-Difluoro-phenyl)-5-{3-[4-(pyridin-4-ylmethoxy)-phenyl]-isoxazol-5-ylmethyl}-H-imidazo[4,5-d]pyridazine]: the inhibition at 10 µM was 100%. Still for that read-out and setting: for `FC(F)(F)c1ccc(-c2cc(Cn3cc4nc(-c5cccc6[nH]ccc56)nc-4cn3)on2)c(C(F)(F)F)c1` [Compound 136, 5-[3-(2,4-Bis-trifluoromethyl-phenyl)-isoxazol-5-ylmethyl]-2-(1H-indol-4-yl)-5H-imidazo[4,5-d]pyridazine] the value was 5.84%; for `CCCCc1ccc(-c2cc(Cn3cc4nc(-c5cccc(F)c5F)nc-4cn3)on2)cc1` [Compound 201, 5-[3-(4-Butyl-phenyl)-isoxazol-5-ylmethyl]-2-(2,3-difluoro-phenyl)-5H-imidazo[4,5-d]pyridazine], 100%.

`COc1ccc(-c2nc(Cn3cc4nc(-c5ccccc5F)nc-4cn3)no2)cc1` [Compound 240, 2-(2-Fluoro-phenyl)-5-[5-(4-methoxy-phenyl)-[1,2,4]oxadiazol-3-ylmethyl]-5H-imidazo[4,5-d]pyridazine]: the inhibition at 10 µM came out at 16.4%. Turning to `CCOc1ccc(-c2cc(Cn3cc4nc(-c5ccccc5F)nc-4cn3)on2)cc1` [Compound 110, 5-[3-(4-Ethoxy-phenyl)-isoxazol-5-ylmethyl]-2-(2-fluoro-phenyl)-55H-imidazo[4,5-d]pyridazine], the inhibition at 10 µM was 97.4%. Besides, where the note is “tested at 5 μM”, the inhibition at 5 µM was found to be 99.4%. Regarding `Fc1cccc(-c2nc3cnn(Cc4cc(-c5ccc(-c6nnn[nH]6)cc5)no4)cc-3n2)c1F` [Compound 328, 2-(2,3-Difluoro-phenyl)-5-{3-[4-(1H-tetrazol-5-yl)-phenyl]-isoxazol-5-ylmethyl}-5H-imidazo[4,5-d]pyridazine], the inhibition at 10 µM is 55.5%. The same measure, in the same setting: for `CN(C)CCOc1ccc(-c2cc(Cn3cc4nc(-c5cccc(F)c5F)nc-4cn3)on2)cc1` [Compound 161, [2-(4-{5-[2-(2,3-Difluoro-phenyl)-imidazo[4,5-d]pyridazin-5-ylmethyl]-isoxazol-3-yl}-phenoxy)-ethyl]-dimethyl-amine] the value was 54.6%. Same read-out and setting: then `CCCCc1ccc(-c2cc(Cn3cc4nc(-c5cccc(F)c5F)nc-4cn3)on2)c(F)c1` [Compound 303, 5-[3-(4-Butyl-2-fluoro-phenyl)-isoxazol-5-ylmethyl]-2-(2,3-difluoro-phenyl)-5H-imidazo[4,5-d]pyridazine], with 99.8%; and `CCCOc1ccc(-c2cc(Cn3cc4nc(-c5cccc(F)c5F)nc-4c(N)n3)on2)cc1` [Compound 235, 2-(2,3-Difluoro-phenyl)-6-[3-(4-propoxy-phenyl)-isoxazol-5-ylmethyl]-6H-imidazo[4,5-d]pyridazin-4-ylamine], with 56%; and `CCCOc1ccc(-c2cc(Cn3cc4nc(-c5ccco5)nc-4cn3)on2)cc1` [Compound 144, 2-Furan-2-yl-5-[3-(4-propoxy-phenyl)-isoxazol-5-ylmethyl]-5H-imidazo[4,5-d]pyridazine], with 92.2%.

Consider `NC(=O)c1ccccc1-c1nc2cnn(Cc3cc(-c4ccc(C(F)(F)F)cc4C(F)(F)F)no3)cc-2n1` [Compound 133, 2-{5-[3-(2,4-Bis-trifluoromethyl-phenyl)-isoxazol-5-ylmethyl]-5H-imidazo[4,5-d]pyridazin-2-yl}-benzamide], for which the inhibition at 10 µM was found to be 10.1%. Still for that read-out and setting: then `CC(F)(F)c1ccc(-c2cc(Cn3cc4nc(-c5cccc(F)c5F)nc-4cn3)on2)cc1` [Compound 314, 5-{3-[4-(1,1-Difluoro-ethyl)-phenyl]-isoxazol-5-ylmethyl}-2-(2,3-difluoro-phenyl)-5H-imidazo[4,5-d]pyridazine], with 99.8%; and `Oc1ccc(-c2cc(Cn3cc4nc(-c5cccc(F)c5F)nc-4cn3)on2)c(C(F)(F)F)c1` [Compound 340, 4-{5-[2-(2,3-Difluoro-phenyl)-imidazo[4,5-d]pyridazin-5-ylmethyl]-isoxazol-3-yl}-3-trifluoromethyl-phenol], with 0.116%.

As for `COCCOc1ccc(-c2cc(Cn3cc4nc(-c5cccc(F)c5F)nc-4cn3)on2)c(C(F)(F)F)c1` [Compound 320, 2-(2,3-Difluoro-phenyl)-5-{3-[4-(2-methoxy-ethoxy)-2-trifluoromethyl-phenyl]-isoxazol-5-ylmethyl}-5H-imidazo[4,5-d]pyridazine], the inhibition at 10 µM turned out to be 99.8%. The same measure, in the same setting: then `CCCOc1ccc(-c2ccc(-c3cc(Cn4cc5nc(-c6cccc(F)c6F)nc-5cn4)on3)cc2)cc1` [Compound 269, 2-(2,3-Difluoro-phenyl)-5-[3-(4′-propoxy-biphenyl-4-yl)-isoxazol-5-ylmethyl]-5H-imidazo[4,5-d]pyridazine], with 36.6%; and `FCCCOc1ccc(-c2cc(Cn3cc4nc(-c5cccc(F)c5F)nc-4cn3)on2)cc1` [Compound 207, 2-(2,3-Difluoro-phenyl)-5-{3-[4-(3-fluoro-propoxy)-phenyl]-isoxazol-5-ylmethyl}-5H-imidazo[4,5-d]pyridazine], with 99.5%; and `Fc1cccc(-c2nc3cnn(Cc4cc(-c5ccc(C(F)F)cc5)no4)cc-3n2)c1F` [Compound 336, 5-[3-(4-Difluoromethyl-phenyl)-isoxazol-5-ylmethyl]-2-(2,3-difluoro-phenyl)-5H-imidazo[4,5-d]pyridazine], with 99.7%.

(Values after US20090197880A1 (Genelabs Technologies, Inc., priority 2007, published 2009).)
